How the values were obtained:
ROCK1 = ROCK1 (Homo sapiens (Human), UniProt Q13464); test: ROCK assay (LABCHIP peptide phosphorylation), ROCK1; format: biochemical; settings: 5 μM ATP, 1.5 μM peptide substrate; read-out: ROCK1 IC50
ROCK2 = ROCK2 (Homo sapiens (Human), UniProt O75116); test: ROCK assay (LABCHIP peptide phosphorylation), ROCK2; format: biochemical; settings: 5 μM ATP, 1.5 μM peptide substrate
Sequence of ROCK2 (O75116 whole entry, species assumed): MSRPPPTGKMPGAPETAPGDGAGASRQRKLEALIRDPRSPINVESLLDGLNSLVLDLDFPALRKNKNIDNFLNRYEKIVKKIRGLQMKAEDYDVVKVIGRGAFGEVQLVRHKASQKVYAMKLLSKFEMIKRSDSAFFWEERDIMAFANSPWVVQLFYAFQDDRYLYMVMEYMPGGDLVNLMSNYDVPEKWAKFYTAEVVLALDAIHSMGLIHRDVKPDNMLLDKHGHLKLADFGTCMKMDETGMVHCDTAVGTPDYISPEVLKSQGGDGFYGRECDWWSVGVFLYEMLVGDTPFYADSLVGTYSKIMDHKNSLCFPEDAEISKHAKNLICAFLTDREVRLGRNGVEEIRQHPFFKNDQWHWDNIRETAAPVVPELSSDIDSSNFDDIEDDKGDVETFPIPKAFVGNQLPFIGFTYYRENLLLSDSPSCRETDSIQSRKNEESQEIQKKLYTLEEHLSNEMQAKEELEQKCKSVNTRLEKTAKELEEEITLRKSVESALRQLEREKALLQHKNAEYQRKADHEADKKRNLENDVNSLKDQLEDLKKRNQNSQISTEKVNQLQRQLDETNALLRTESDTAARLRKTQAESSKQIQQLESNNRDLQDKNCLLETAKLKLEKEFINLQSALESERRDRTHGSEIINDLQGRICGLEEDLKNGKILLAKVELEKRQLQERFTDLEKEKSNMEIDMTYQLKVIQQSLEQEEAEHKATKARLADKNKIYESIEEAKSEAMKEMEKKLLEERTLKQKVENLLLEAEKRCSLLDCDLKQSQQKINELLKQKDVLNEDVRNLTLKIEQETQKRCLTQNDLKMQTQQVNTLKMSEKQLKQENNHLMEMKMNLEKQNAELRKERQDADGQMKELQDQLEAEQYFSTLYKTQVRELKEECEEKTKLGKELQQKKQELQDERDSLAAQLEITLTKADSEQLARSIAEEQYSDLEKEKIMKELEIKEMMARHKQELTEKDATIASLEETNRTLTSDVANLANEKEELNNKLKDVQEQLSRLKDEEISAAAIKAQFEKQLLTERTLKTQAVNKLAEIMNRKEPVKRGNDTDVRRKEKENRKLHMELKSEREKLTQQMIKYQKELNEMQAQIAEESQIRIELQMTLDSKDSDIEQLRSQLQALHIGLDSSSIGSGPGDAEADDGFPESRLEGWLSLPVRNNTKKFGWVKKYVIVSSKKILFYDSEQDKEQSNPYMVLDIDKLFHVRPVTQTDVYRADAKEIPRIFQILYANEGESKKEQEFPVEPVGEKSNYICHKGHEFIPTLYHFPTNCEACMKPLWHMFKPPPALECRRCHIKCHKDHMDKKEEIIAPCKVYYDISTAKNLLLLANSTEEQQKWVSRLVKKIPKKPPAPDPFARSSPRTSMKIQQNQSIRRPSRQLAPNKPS

Sequence of ROCK1 (Q13464 whole entry, species assumed): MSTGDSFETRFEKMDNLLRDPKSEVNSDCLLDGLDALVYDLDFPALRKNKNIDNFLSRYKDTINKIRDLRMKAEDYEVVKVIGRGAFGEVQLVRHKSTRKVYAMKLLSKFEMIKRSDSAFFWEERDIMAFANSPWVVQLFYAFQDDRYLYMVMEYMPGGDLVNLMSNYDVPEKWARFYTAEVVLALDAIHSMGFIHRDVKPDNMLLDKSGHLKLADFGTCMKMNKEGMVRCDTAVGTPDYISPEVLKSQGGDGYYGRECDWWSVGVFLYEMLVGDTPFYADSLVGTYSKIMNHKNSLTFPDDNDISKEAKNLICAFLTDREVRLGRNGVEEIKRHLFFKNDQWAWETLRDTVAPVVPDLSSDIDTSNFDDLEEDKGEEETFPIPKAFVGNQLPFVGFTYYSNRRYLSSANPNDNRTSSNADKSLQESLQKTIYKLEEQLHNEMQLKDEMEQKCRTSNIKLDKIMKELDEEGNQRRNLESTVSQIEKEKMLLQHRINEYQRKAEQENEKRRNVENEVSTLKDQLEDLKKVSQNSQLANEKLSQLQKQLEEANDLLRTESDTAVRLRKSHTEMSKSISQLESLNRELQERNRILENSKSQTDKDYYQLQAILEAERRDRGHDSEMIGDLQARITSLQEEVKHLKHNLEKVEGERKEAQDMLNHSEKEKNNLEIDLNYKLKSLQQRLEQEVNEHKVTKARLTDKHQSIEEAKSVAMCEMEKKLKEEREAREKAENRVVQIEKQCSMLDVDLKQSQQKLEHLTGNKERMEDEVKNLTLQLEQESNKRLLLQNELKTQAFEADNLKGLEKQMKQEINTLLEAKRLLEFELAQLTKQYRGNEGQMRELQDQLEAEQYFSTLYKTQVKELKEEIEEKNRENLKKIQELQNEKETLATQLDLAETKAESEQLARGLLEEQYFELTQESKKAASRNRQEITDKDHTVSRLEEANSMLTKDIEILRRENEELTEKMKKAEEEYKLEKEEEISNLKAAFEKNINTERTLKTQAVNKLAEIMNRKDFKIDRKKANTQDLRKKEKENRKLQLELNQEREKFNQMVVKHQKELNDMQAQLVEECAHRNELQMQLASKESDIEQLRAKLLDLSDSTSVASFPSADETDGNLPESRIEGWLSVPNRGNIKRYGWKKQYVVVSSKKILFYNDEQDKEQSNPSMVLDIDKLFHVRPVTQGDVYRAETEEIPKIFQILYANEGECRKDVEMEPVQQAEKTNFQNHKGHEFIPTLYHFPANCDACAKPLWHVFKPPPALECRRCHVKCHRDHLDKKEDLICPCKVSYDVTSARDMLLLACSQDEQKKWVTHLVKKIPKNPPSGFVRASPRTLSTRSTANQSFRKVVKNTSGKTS

Row | Structure (SMILES) | IC50 (ROCK1) [nM] | IC50 (ROCK2) [nM]
1 | O=C(Nc1ccc(-c2n[nH]c(=O)c3ccccc23)c(CO)c1)c1nn(CC2CCOC2)c2ccc(F)cc12 (stereo not shown) [Example 366, 5-Fluoro-N-(3-(hydroxymethyl)-4-(4-oxo-3,4-dihydrophthalazin-1-yl)phenyl)-1-((tetrahydrofuran-3-yl)methyl)-1H-indazole-3-carboxamide] | 101 to 1000 | 0.1 to 100
2 | O=C(Nc1ccc(-c2n[nH]c(=O)c3ccccc23)c(CO)c1)c1nn(CC2CCCO2)c2ccccc12 (stereo not shown) [Example 367, N-(3-(Hydroxymethyl)-4-(4-oxo-3,4-dihydrophthalazin-1-yl)phenyl)-1-((tetrahydrofuran-2-yl)methyl)-1H-indazole-3-carboxamide] | 1000 to 50000 | 0.1 to 100
3 | O=C(Nc1ccc(-c2n[nH]c(=O)c3ccccc23)c(CO)c1)c1nn(CC2CCOC2)c2cc(F)ccc12 (stereo not shown) [Example 368, 6-Fluoro-N-(3-(hydroxymethyl)-4-(4-oxo-3,4-dihydrophthalazin-1-yl)phenyl)-1-((tetrahydrofuran-3-yl)methyl)-1H-indazole-3-carboxamide] | 1000 to 50000 | 0.1 to 100
4 | COc1ccc2c(-c3ccc(NC(=O)c4nn(CC(C)(C)O)c5ccccc45)cc3)n[nH]c(=O)c2c1 [Example 369, 1-(2-Hydroxy-2-methylpropyl)-N-(4-(6-methoxy-4-oxo-3,4-dihydrophthalazin-1-yl)phenyl)-1H-indazole-3-carboxamide] | 101 to 1000 | 0.1 to 100
5 | COc1ccc2c(-c3ccc(NC(=O)c4cn5ccccc5n4)cc3)n[nH]c(=O)c2c1 [Example 370, N-(4-(6-Methoxy-4-oxo-3,4-dihydrophthalazin-1-yl)phenyl)imidazo[1,2-a]pyridine-2-carboxamide] | 1000 to 50000 | 0.1 to 100
6 | O=C(Nc1ccc(-c2n[nH]c(=O)c3ccccc23)cc1)N1CC2(CCNCC2)c2ccccc21 [Example 371, N-(4-(4-Oxo-3,4-dihydrophthalazin-1-yl)phenyl)spiro[indoline-3,4′-piperidine]-1-carboxamide] | 101 to 1000 | 101 to 1000
7 | O=C(Nc1ccc(-c2n[nH]c(=O)c3ccccc23)cc1)c1cn(C2CCNCC2)nn1 [Example 372, N-(4-(4-Oxo-3,4-dihydrophthalazin-1-yl)phenyl)-1-(piperidin-4-yl)-1H-1,2,3-triazole-4-carboxamide] | 101 to 1000 | 101 to 1000
8 | CC(C)(O)Cn1cc(C(=O)Nc2ccc(-c3n[nH]c(=O)c4ccccc34)cc2)cn1 [Example 377, 1-(2-Hydroxy-2-methylpropyl)-N-(4-(4-oxo-3,4-dihydrophthalazin-1-yl)phenyl)-1H-pyrazole-4-carboxamide] | 1000 to 50000 | 0.1 to 100
9 | COCC(O)Cn1cc(C(=O)Nc2ccc(-c3n[nH]c(=O)c4ccccc34)cc2)cn1 (stereo not shown) [Example 379, 1-(2-Hydroxy-3-methoxypropyl)-N-(4-(4-oxo-3,4-dihydrophthalazin-1-yl)phenyl)-1H-pyrazole-4-carboxamide] | 101 to 1000 | 0.1 to 100
10 | O=C(Nc1ccc(-c2n[nH]c(=O)c3ccccc23)cc1)c1cnn(CC(O)(C(F)(F)F)C(F)(F)F)c1 [Example 380, N-(4-(4-Oxo-3,4-dihydrophthalazin-1-yl)phenyl)-1-(3,3,3-trifluoro-2-hydroxy-2-(trifluoromethyl)propyl)-1H-pyrazole-4-carboxamide] | 101 to 1000 | 0.1 to 100
11 | CC(C)(C)n1cc(C(=O)Nc2ccc(-c3n[nH]c(=O)c4ccccc34)cc2)cn1 [Example 381, 1-(tert-Butyl)-N-(4-(4-oxo-3,4-dihydrophthalazin-1-yl)phenyl)-1H-pyrazole-4-carboxamide] | 0.1 to 100 | 0.1 to 100
12 | O=C(Nc1ccc(-c2n[nH]c(=O)c3ccccc23)cc1)c1cnn(C2CCOCC2)c1 [Example 384, N-(4-(4-Oxo-3,4-dihydrophthalazin-1-yl)phenyl)-1-(tetrahydro-2H-pyran-4-yl)-1H-pyrazole-4-carboxamide] | 101 to 1000 | 0.1 to 100
13 | O=C(Nc1ccc(-c2n[nH]c(=O)c3ccccc23)cc1)c1cnn(CC(F)F)c1 [Example 386, 1-(2,2-Difluoroethyl)-N-(4-(4-oxo-3,4-dihydrophthalazin-1-yl)phenyl)-1H-pyrazole-4-carboxamide] | 101 to 1000 | 0.1 to 100
14 | O=C(Nc1ccc(-c2n[nH]c(=O)c3ccccc23)cc1)c1cnn(-c2ccc(Cl)cc2)c1 [Example 388, 1-(4-Chlorophenyl)-N-(4-(4-oxo-3,4-dihydrophthalazin-1-yl)phenyl)-1H-pyrazole-4-carboxamide] | 101 to 1000 | 0.1 to 100
15 | O=C(Nc1ccc(-c2n[nH]c(=O)c3ccccc23)cc1)c1cnn(C2COC2)c1 [Example 389, 1-(Oxetan-3-yl)-N-(4-(4-oxo-3,4-dihydrophthalazin-1-yl)phenyl)-1H-pyrazole-4-carboxamide] | 101 to 1000 | 0.1 to 100
16 | O=C(Nc1ccc(-c2n[nH]c(=O)c3ccccc23)cc1)c1cnn(C2CCOC2)c1 (stereo not shown) [Example 390, N-(4-(4-Oxo-3,4-dihydrophthalazin-1-yl)phenyl)-1-(tetrahydrofuran-3-yl)-1H-pyrazole-4-carboxamide] | 101 to 1000 | 0.1 to 100

Row | Structure (SMILES) | IC50 (ROCK1) [nM] | IC50 (ROCK2) [nM]
17 | O=C(Nc1ccc(-c2n[nH]c(=O)c3ccccc23)cc1)c1cnn(C2C3CCC2CC3)c1 (stereo not shown) [Example 392, 1-(Bicyclo[2.2.1]heptan-7-yl)-N-(4-(4-oxo-3,4-dihydrophthalazin-1-yl)phenyl)-1H-pyrazole-4-carboxamide] | 0.1 to 100 | 0.1 to 100
18 | O=C(Nc1ccc(-c2n[nH]c(=O)c3ccccc23)cc1)c1cnn([C@H]2C[C@@H]3CC[C@H]2C3)c1 [Example 393, 1-((1S,2S,4R)-Bicyclo[2.2.1]heptan-2-yl)-N-(4-(4-oxo-3,4-dihydrophthalazin-1-yl)phenyl)-1H-pyrazole-4-carboxamide] | 0.1 to 100 | 0.1 to 100
19 | Cc1cc(NC(=O)c2cnn(-c3ccccc3)c2C)ccc1-c1n[nH]c(=O)c2ccccc12 [Example 394, 5-Methyl-N-(3-methyl-4-(4-oxo-3,4-dihydrophthalazin-1-yl)phenyl)-1-phenyl-1H-pyrazole-4-carboxamide] | 101 to 1000 | 0.1 to 100
20 | Cc1cc(NC(=O)c2cc(C(C)(C)C)n(C)n2)ccc1-c1n[nH]c(=O)c2ccccc12 [Example 395, 5-(tert-Butyl)-1-methyl-N-(3-methyl-4-(4-oxo-3,4-dihydrophthalazin-1-yl)phenyl)-1H-pyrazole-3-carboxamide] | 0.1 to 100 | 0.1 to 100
21 | O=C(Nc1ccc(-c2n[nH]c(=O)c3ccccc23)cc1)c1cnn(C2CCNC2)c1 (stereo not shown) [Example 397, N-(4-(4-Oxo-3,4-dihydrophthalazin-1-yl)phenyl)-1-(pyrrolidin-3-yl)-1H-pyrazole-4-carboxamide] | 1000 to 50000 | 101 to 1000
22 | O=C(Nc1ccc(-c2n[nH]c(=O)c3ccccc23)cc1)c1cnn(CCC(F)(F)F)c1 [Example 398, N-(4-(4-Oxo-3,4-dihydrophthalazin-1-yl)phenyl)-1-(3,3,3-trifluoropropyl)-1H-pyrazole-4-carboxamide] | 101 to 1000 | 0.1 to 100
23 | O=C(Nc1ccc(-c2n[nH]c(=O)c3ccccc23)cc1)c1cnn(CCCN2CCCC2)c1 [Example 399, N-(4-(4-Oxo-3,4-dihydrophthalazin-1-yl)phenyl)-1-(3-(pyrrolidin-1-yl)propyl)-1H-pyrazole-4-carboxamide] | 101 to 1000 | 101 to 1000
24 | Cc1c(C(=O)Nc2ccc(-c3n[nH]c(=O)c4ccccc34)cc2)nnn1-c1ccccc1 [Example 400, 5-Methyl-N-(4-(4-oxo-3,4-dihydrophthalazin-1-yl)phenyl)-1-phenyl-1H-1,2,3-triazole-4-carboxamide] | 0.1 to 100 | 0.1 to 100
25 | COc1ccc(-n2nnc(C(=O)Nc3ccc(-c4n[nH]c(=O)c5ccccc45)cc3)c2C)cc1 [Example 401, 1-(4-Methoxyphenyl)-5-methyl-N-(4-(4-oxo-3,4-dihydrophthalazin-1-yl)phenyl)-1H-1,2,3-triazole-4-carboxamide] | 0.1 to 100 | 0.1 to 100
26 | COc1ccc(-n2nnc(C)c2C(=O)Nc2ccc(-c3n[nH]c(=O)c4ccccc34)cc2)cc1 [Example 402, 1-(4-Methoxyphenyl)-4-methyl-N-(4-(4-oxo-3,4-dihydrophthalazin-1-yl)phenyl)-1H-1,2,3-triazole-5-carboxamide] | 101 to 1000 | 0.1 to 100
27 | Cn1nc(C(=O)Nc2ccc(-c3n[nH]c(=O)c4ccccc34)cc2)cc1OC(F)F [Example 403, 5-(Difluoromethoxy)-1-methyl-N-(4-(4-oxo-3,4-dihydrophthalazin-1-yl)phenyl)-1H-pyrazole-3-carboxamide] | 0.1 to 100 | 0.1 to 100
28 | COc1cccc(-n2cc(C(=O)Nc3ccc(-c4n[nH]c(=O)c5ccccc45)cc3)nn2)c1 [Example 404, 1-(3-Methoxyphenyl)-N-(4-(4-oxo-3,4-dihydrophthalazin-1-yl)phenyl)-1H-1,2,3-triazole-4-carboxamide] | 0.1 to 100 | 0.1 to 100
29 | COc1ccccc1-n1nnc(C(=O)Nc2ccc(-c3n[nH]c(=O)c4ccccc34)cc2)c1C [Example 405, 1-(2-Methoxyphenyl)-5-methyl-N-(4-(4-oxo-3,4-dihydrophthalazin-1-yl)phenyl)-1H-1,2,3-triazole-4-carboxamide] | 0.1 to 100 | 0.1 to 100
30 | COc1ccccc1-n1cc(C(=O)Nc2ccc(-c3n[nH]c(=O)c4ccccc34)cc2)nn1 [Example 406, 1-(2-Methoxyphenyl)-N-(4-(4-oxo-3,4-dihydrophthalazin-1-yl)phenyl)-1H-1,2,3-triazole-4-carboxamide] | 0.1 to 100 | 0.1 to 100
31 | Cn1nc(C2CC2)cc1C(=O)Nc1ccc(-c2n[nH]c(=O)c3ccccc23)cc1 [Example 407, 3-Cyclopropyl-1-methyl-N-(4-(4-oxo-3,4-dihydrophthalazin-1-yl)phenyl)-1H-pyrazole-5-carboxamide] | 0.1 to 100 | 0.1 to 100
32 | Cn1nc(C(F)(F)F)cc1C(=O)Nc1ccc(-c2n[nH]c(=O)c3ccccc23)cc1 [Example 408, 1-Methyl-N-(4-(4-oxo-3,4-dihydrophthalazin-1-yl)phenyl)-3-(trifluoromethyl)-1H-pyrazole-5-carboxamide] | 101 to 1000 | 0.1 to 100
